# Columns and labels:
# Assay type in all cases: in vivo
# [1] = test system: Puccinia recondita f. sp. tritici; test: Test F: preventive spray on wheat seedlings, wheat leaf rust, visual disease rating; conditions: for pest or weed control at 250 ppm: Puccinia recondita
# From the text: (§1) General protocol for preparing test solutions for Tests AG: the test compounds were first dissolved in acetone in an amount equal to 3% of the final volume and then suspended at the desired concentration (in ppm) in acetone and purified water (50/50 mix by volume) containing the surfactant PEG400 (polyhydric alcohol esters). The resulting test suspensions were then used in Tests AG. Compounds were sprayed at a concentration of 250 ppm or other indicated rate to the point of run-off on the test plants. The test solution was sprayed to the point of run-off on wheat seedlings. The following day the seedlings were inoculated with a spore suspension of Puccinia recondita f. sp. tritici; […] A dash (-) indicates no test results.
# [2] = test system: Plasmopara viticola; test: Test B: preventive spray on grape seedlings, grape downy mildew, disease rating; conditions: 250 ppm, 100 = 100% disease control, 0 = no control
# From the text: as §1, with “grape” for “wheat”, “seedlings.” for “seedlings. The following day the seedlings were inoculated with a spore suspension of Puccinia recondita f. sp. tritici;”
# [3] = test system: Phytophthora infestans; test: whole plant or invertebrate; conditions: for Test D disease control rating: tomato seedlings; for pest or weed control at 250 ppm: Phytophthora infestans, in Solanum lycopersicum, read-out: Test D disease control rating
# [4] = test system: Zymoseptoria tritici; test: Test E: preventive spray on wheat seedlings, wheat leaf blotch, visual disease rating; conditions: for pest or weed control at 250 ppm: Zymoseptoria tritici
# From the text: as §1, with “seedlings.” for “seedlings. The following day the seedlings were inoculated with a spore suspension of Puccinia recondita f. sp. tritici;”
# [5] = test system: Botrytis cinerea; test: Test C: preventive spray on tomato seedlings, gray mold, visual disease rating; conditions: for pest or weed control at 250 ppm: Botrytis cinerea
# From the text: as §1, with “tomato” for “wheat”, “seedlings.” for “seedlings. The following day the seedlings were inoculated with a spore suspension of Puccinia recondita f. sp. tritici;”
# [6] = test system: Erysiphe graminis f. sp. tritici; test: Test G: preventive spray on wheat seedlings, wheat powdery mildew, visual disease rating; conditions: for pest or weed control at 250 ppm: Blumeria graminis, 192 h
# From the text: as §1, with “seedlings.” for “seedlings. The following day the seedlings were inoculated with a spore suspension of Puccinia recondita f. sp. tritici;”
# [7] = test system: Phakopsora pachyrhizi; test: Test A: preventive spray on soybean seedlings, Asian soybean rust, visual disease rating; conditions: for pest or weed control at 250 ppm: Phakopsora pachyrhizi
# [8] = 250 ppm, 100 = 100% disease control, 0 = no control
Structure (SMILES),"Test F disease control rating [1, 8] [%]",Test B disease control rating [2] [%],"Test D disease control rating [3, 8] [%]","Test E disease control rating [4, 8] [%]","Test C disease control rating [5, 8] [%]","Test G disease control rating [6, 8] [%]","Test A disease control rating [7, 8] [%]",other results
Cn1ncc(O)c(C(=O)Nc2ccc(Cl)nc2)c1=O [Compound 6],99,85,88,57,99,0,,
Cn1nc(-c2ccccc2)c(O)c(C(=O)Nc2ccccc2C(F)(F)F)c1=O [Compound 26],68,49,58,0,0,84,,
Cn1ncc(O)c(C(=O)Nc2ccccc2OC(F)(F)F)c1=O [Compound 126],89,95,,82,0,93,,
CCCC(=O)Oc1cnn(C)c(=O)c1C(=O)Nc1ccc(OC(F)(F)F)cc1 [Compound 87],100,100,,100,0,99,,
Cn1ncc(O)c(C(=O)Nc2c(Cl)cc(Cl)cc2Cl)c1=O [Compound 118],86,71,100,,0,97,,
CCCC(=O)Oc1cnn(C)c(=O)c1C(=O)N(C(=O)CCC)c1ccc(OC(F)(F)F)cc1 [Compound 139],100,100,0,,0,100,,
Cn1ncc(O)c(C(=O)Nc2ccc(F)cc2C(F)(F)F)c1=O [Compound 145],99,100,,99,0,99,,
"Cn1ncc(OS(C)(=O)=O)c(C(=O)Nc2ccc(C#N)cc2)c1=O [Compound 98, N-(4-cyanophenyl)-2,3-dihydro-2-methyl-5-[(methylsulfonyl)oxy]-3-oxo-4-pyridazinecarboxamide]",,,,,,,,"pest or weed control at 250 ppm [1, 8]: 97%; pest or weed control at 250 ppm [3]: 9%; pest or weed control at 250 ppm [7, 8]: 99%; pest or weed control at 250 ppm [4, 8]: 95%; pest or weed control at 250 ppm [5, 8]: 98%; pest or weed control at 250 ppm [6, 8]: 0%"
Cn1ncc(OS(C)(=O)=O)c(C(=O)Nc2ccc(OC(F)(F)F)cc2F)c1=O [Compound 100],95,,0,92,98,0,94,
"Cn1ncc(Br)c(C(=O)Nc2ccc(OC(F)(F)F)cc2)c1=O [Compound 42, 5-Bromo-2,3-dihydro-2-methyl-3-oxo-N-[4-(trifluoromethoxy)phenyl]-4-pyridazinecarboxamide]",,,,,,,,"pest or weed control at 250 ppm [1, 8]: 86%; pest or weed control at 250 ppm [3]: 0%; pest or weed control at 250 ppm [7, 8]: 79%; pest or weed control at 250 ppm [4, 8]: 99%; pest or weed control at 250 ppm [5, 8]: 0%; pest or weed control at 250 ppm [6, 8]: 0%"
Cn1ncc(Cl)c(C(=O)Nc2ccc(C(F)(F)F)cc2F)c1=O [Compound 52],,,,,,,,Test F disease control rating ([1]; 160 ppm): 99%; Test D disease control rating ([3]; 160 ppm): 90%; Test A disease control rating ([7]; 160 ppm): 97%; Test E disease control rating ([4]; 160 ppm): 99%; Test C disease control rating ([5]; 160 ppm): 59%; Test G disease control rating ([6]; 160 ppm): 39%
Cc1cccc(NC(=O)c2c(O)cnn(C)c2=O)c1 [Compound 54],95,,0,0,0,0,0,
Cn1ncc(OS(C)(=O)=O)c(C(=O)Nc2ccc(F)cc2)c1=O [Compound 101],99,,9,78,0,0,78,
Cn1ncc(Cl)c(C(=O)Nc2ccc(F)cc2)c1=O [Compound 43],97,,68,4,79,0,78,
Cn1ncc(OS(C)(=O)=O)c(C(=O)Nc2ccc(Oc3ccccc3)cc2)c1=O [Compound 106],86,,85,83,0,81,98,
Cc1cccc(NC(=O)c2c(OS(C)(=O)=O)cnn(C)c2=O)c1 [Compound 105],86,,33,86,0,0,86,
Cn1ncc(OS(C)(=O)=O)c(C(=O)Nc2ccc(C(F)(F)F)cc2F)c1=O [Compound 102],99,,26,95,41,0,99,
Cn1ncc(O)c(C(=O)Nc2cccc(-c3ccc(Cl)cc3)c2)c1=O [Compound 44],86,,0,0,0,0,0,
Cn1ncc(O)c(C(=O)Nc2ccccc2F)c1=O [Compound 36],98,,94,0,0,78,31,
COc1ccc(NC(=O)c2c(Cl)cnn(C)c2=O)cc1 [Compound 30],96,,0,0,0,0,60,
"Cn1ncc(OS(C)(=O)=O)c(C(=O)Nc2ccc(C(F)(F)F)cc2)c1=O [Compound 96, 2,3-Dihydro-2-methyl-5-[(methylsulfonyl)oxy]-3-oxo-N-[4-(trifluoromethyl)phenyl]-4-pyridazinecarboxamide]",,,,,,,,"pest or weed control at 250 ppm [1, 8]: 99%; pest or weed control at 250 ppm [3]: 0%; pest or weed control at 250 ppm [7, 8]: 98%; pest or weed control at 250 ppm [4, 8]: 97%; pest or weed control at 250 ppm [5, 8]: 30%; pest or weed control at 250 ppm [6, 8]: 84%"
Cc1ccc(S(=O)(=O)Oc2cnn(C)c(=O)c2C(=O)Nc2ccc(OC(F)(F)F)cc2)cc1 [Compound 112],95,,46,43,0,0,25,
Cn1ncc(O)c(C(=O)Nc2ccc(OC(F)(F)F)cc2C(F)(F)F)c1=O [Compound 148],86,79,,79,0,98,,
Cc1cc(OC(F)(F)F)ccc1NC(=O)c1c(O)cnn(C)c1=O [Compound 124],99,99,99,,0,99,,

# Source: US20190133128A1, “Fungicidal pyridazinones” (FMC Corporation, priority 2017, published 2019)
